This is an account of results in ChEMBL document CHEMBL1201862, “PubChem BioAssay data set” (2004).

One test has as its target T1, Aminopeptidase N (Plasmodium falciparum FcB1/Columbia, UniProt O96935).
T1 sequence (O96935 whole entry): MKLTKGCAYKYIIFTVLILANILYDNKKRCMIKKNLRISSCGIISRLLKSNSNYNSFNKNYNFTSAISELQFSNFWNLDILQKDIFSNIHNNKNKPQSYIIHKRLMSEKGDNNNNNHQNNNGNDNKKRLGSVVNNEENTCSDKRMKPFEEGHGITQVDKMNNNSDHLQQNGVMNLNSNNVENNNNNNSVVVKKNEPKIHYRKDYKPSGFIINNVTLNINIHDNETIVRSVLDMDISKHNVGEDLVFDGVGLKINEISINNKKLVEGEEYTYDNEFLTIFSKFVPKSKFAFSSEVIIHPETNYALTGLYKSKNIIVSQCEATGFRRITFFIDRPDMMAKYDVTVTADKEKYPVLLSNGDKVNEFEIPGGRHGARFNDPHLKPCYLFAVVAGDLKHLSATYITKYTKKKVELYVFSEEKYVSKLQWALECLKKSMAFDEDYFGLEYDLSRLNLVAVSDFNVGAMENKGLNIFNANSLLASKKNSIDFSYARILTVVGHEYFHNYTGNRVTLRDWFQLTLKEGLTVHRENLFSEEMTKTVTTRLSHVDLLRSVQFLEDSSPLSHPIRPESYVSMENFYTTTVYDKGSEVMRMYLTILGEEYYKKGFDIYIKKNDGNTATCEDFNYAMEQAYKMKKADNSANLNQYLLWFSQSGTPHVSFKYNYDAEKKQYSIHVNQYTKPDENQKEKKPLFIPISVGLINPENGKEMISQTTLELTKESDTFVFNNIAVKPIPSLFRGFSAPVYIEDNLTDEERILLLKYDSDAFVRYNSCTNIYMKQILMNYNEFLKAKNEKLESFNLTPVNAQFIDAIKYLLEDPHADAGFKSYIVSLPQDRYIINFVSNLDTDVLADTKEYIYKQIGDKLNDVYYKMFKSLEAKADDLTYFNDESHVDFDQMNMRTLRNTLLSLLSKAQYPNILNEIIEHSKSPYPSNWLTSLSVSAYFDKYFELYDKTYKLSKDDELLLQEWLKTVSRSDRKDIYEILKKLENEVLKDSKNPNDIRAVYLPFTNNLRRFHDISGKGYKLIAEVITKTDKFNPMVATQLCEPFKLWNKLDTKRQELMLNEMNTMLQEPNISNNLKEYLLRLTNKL
Nature of the test: P. falciparum M1AAP inhibitors, biochemical, fluorogenic H-Leu-NHMec substrate, 1536-well (AID 1445). More on the design: species or system Plasmodium falciparum 3D7, 3D7.

Test [1] addresses Voltage-dependent T-type calcium channel subunit alpha-1H (Homo sapiens, UniProt O95180). Format: functional.
A further test has as its target Nonstructural protein 1 (Influenza A virus, UniProt Q194T2). Format: functional, Influenza A virus (A/California/07/2009(H1N1)).
Test [2] concerns the target T2, DNA dC->dU-editing enzyme APOBEC-3A (Homo sapiens, UniProt P31941). Nature of the test: APOBEC3A DNA deaminase inhibitors, dose response, biochemical (AID 504722). Format: functional.
Test [3] deals with T3, DNA dC->dU-editing enzyme APOBEC-3G (Homo sapiens, UniProt Q9HC16). The test can be described thus: Dose Response confirmation of small molecule APOBEC3G DNA Deaminase Inhibitors via a fluorescence-based single-stranded DNA deaminase assay. [Related pubchem assays (depositor defined):AID493012, AID493028]. The format is functional.
Test [4] has as its target T2, DNA dC->dU-editing enzyme APOBEC-3A. The test can be described thus: Dose Response confirmation of small molecule APOBEC3A DNA Deaminase Inhibitors via a fluorescence-based single-stranded DNA deaminase assay. [Related pubchem assays (depositor defined):AID493011, AID493024]. Format: functional.
The target in test [5] is T3, DNA dC->dU-editing enzyme APOBEC-3G. Format: functional.
Test [6] in a line: cytotoxicity in HEK-293T cells, dose response, cytotoxicity control for TCR NF-kB inhibitor project, luminescence, T-cell screen hits (AID 489026).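 Further: cells exposed to compound about 14 hours before the viability readout.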 The format is functional, cell-based.
Test [7] concerns the target Glucose-6-phosphate 1-dehydrogenase (Homo sapiens, UniProt P11413). The test can be described thus: human G6PD enzyme inhibitors, dose response, selectivity assay for P. falciparum G6PD inhibitor project, biochemical, fluorescence (AID 504792). Format: functional.
Test [8] is described as follows: growth suppression of PTEN-null colon cells, dose response, cell-based, HCT116 PTEN knockout (AID 1047).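 Further: HCT116 colon tumor cells with PTEN knocked out; cells exposed to compound for 60 hours before readout; potency for loss of cell viability measured by luminescence.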 Format: functional.
Test [9] can be described thus: growth suppression of beta-catenin-knockout colon cells, dose response, cell-based, HCT116, human colon tumor (AID 1045).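 Further: HCT116 colon tumor cells with beta catenin knocked out; cells exposed to compound for 60 hours.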 Format: functional.
Test [10] is described as follows: Luminescence Cell-Based Dose Confirmation HTS to Identify Activators of 5'UTR Stem-Loop Driven Alpha-Synuclein mRNA Translation in H4 Neuroglioblastoma Cells. [Related pubchem assays: 1829 (Project Summary), 1814 (Primary HTS)]. The format is functional.
Test [11] in a line: Luminescence Cell-Based Dose Response HTS to Identify Activators of Luciferase Translation or Activity in H4 […] Cells. [Related pubchem assays: 1829 (Project Summary), 1814 (Primary HTS)]. The format is functional.
In the next test the test system is H4. Nature of the test: Luminescence Cell-Based Dose Response HTS to Identify Activators of 5'UTR Stem-Loop Driven Prion Protein mRNA Translation in H4 Neuroglioblastoma Cells. [Related pubchem assays: 1829 (Project Summary), 1814 (Primary HTS)]. The format is functional. Particulars: Homo sapiens.
A short description of test [12]: HEp-2 cell cytotoxicity, dose response, cytotoxicity control for RSV inhibitor project, HTS (AID 2410). The format is functional. The following applies: human respiratory syncytial virus.
A further test has as its target Cytochrome P450 2D6 (Homo sapiens, UniProt P10635).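 Further: CYP2D6 member of a cytochrome P450 panel assay.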
Test [13] addresses T4, Fatty acid synthase (Homo sapiens, UniProt P49327). Nature of the test: FAS thioesterase domain inhibitors, dose response, biochemical, endpoint fluorescence intensity, uHTS hits (AID 624327).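 Further: fluorescence from hydrolysis of an O-methyl fluorescein acyl ester substrate by the enzyme.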 The format is functional.
Test [14] deals with T4, Fatty acid synthase. Nature of the test: FAS thioesterase domain inhibitors, dose response, biochemical, kinetic fluorescence intensity (AID 624326).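 Further: rate of fluorescence rise from hydrolysis of a fluorogenic O-methyl fluorescein ester substrate.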 The format is functional.

Each structure is given as a SMILES string. Activity calls are given as the source filed them. Bounds are passed on as bounds.

Chain of Glucose-6-phosphate 1-dehydrogenase (P11413 whole entry): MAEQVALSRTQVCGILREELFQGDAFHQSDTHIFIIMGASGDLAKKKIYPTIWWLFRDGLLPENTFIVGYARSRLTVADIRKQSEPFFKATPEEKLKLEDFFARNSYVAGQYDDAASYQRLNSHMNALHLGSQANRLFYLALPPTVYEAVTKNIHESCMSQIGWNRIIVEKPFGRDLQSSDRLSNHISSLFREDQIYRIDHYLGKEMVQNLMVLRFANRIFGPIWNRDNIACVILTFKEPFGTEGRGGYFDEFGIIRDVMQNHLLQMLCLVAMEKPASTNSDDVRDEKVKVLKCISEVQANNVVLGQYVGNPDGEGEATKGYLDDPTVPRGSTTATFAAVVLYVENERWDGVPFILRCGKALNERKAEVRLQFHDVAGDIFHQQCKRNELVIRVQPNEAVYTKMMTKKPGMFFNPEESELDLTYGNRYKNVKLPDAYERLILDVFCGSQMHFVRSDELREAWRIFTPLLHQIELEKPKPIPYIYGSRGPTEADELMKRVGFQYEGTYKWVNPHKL
Chain of Voltage-dependent T-type calcium channel subunit alpha-1H (O95180 whole entry): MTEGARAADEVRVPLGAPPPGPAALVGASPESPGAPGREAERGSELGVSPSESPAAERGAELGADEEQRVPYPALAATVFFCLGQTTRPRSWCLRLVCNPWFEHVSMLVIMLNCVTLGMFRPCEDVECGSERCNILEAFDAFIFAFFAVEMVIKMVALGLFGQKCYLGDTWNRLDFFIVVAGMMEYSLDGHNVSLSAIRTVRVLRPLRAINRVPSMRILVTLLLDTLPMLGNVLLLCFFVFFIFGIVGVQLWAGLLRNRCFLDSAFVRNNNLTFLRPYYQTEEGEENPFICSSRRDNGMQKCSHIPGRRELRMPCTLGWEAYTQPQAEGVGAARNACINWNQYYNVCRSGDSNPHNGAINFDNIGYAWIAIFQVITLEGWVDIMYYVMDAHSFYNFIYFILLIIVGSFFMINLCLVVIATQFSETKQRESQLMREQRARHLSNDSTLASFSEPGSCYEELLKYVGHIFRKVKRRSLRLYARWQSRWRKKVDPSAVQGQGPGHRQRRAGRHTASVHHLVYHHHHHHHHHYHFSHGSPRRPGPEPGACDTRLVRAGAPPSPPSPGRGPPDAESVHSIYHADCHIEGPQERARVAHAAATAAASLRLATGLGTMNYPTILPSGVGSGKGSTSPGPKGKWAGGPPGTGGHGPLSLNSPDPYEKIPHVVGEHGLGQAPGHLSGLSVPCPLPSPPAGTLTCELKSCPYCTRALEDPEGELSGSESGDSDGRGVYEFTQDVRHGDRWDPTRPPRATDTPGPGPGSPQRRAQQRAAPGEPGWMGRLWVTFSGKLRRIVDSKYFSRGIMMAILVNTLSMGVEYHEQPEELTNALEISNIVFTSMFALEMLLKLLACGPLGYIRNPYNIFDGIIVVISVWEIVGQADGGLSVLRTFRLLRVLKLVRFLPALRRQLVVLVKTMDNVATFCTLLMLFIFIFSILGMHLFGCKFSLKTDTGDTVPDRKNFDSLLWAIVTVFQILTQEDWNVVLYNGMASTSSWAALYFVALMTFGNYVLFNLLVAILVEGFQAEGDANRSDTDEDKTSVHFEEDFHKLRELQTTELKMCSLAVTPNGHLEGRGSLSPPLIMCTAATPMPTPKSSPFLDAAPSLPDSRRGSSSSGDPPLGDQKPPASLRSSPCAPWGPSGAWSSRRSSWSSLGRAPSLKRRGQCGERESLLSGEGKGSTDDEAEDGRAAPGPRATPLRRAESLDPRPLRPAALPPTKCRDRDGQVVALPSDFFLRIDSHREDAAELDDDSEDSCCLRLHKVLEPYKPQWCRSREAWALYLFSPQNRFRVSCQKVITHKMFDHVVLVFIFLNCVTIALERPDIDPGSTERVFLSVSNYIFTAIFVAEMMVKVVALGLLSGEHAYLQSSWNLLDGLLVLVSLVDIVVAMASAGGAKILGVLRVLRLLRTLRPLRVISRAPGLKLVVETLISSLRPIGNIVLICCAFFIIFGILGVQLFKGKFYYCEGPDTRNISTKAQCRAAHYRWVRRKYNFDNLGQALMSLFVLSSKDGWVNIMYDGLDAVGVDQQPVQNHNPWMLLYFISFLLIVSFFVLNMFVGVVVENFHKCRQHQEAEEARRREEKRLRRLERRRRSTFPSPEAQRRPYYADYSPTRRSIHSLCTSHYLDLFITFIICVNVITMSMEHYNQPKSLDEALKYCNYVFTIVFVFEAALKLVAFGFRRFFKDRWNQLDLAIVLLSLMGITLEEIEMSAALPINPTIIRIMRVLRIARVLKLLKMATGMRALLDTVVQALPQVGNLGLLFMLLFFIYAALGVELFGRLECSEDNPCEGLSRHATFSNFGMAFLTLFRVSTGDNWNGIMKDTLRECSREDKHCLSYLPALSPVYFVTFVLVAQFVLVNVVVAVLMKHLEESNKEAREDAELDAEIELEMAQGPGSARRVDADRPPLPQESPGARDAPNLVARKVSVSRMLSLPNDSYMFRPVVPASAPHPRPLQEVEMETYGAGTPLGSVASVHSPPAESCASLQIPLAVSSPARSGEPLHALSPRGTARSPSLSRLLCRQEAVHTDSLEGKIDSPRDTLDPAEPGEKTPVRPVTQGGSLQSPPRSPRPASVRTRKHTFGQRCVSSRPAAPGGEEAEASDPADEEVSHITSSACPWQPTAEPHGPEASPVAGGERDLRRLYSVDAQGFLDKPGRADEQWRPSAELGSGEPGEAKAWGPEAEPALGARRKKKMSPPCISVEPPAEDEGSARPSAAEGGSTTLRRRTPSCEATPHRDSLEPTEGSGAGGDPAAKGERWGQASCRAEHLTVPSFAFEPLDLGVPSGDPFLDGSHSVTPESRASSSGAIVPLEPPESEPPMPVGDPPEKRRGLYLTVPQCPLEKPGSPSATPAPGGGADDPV
T3 sequence (Q9HC16 whole entry): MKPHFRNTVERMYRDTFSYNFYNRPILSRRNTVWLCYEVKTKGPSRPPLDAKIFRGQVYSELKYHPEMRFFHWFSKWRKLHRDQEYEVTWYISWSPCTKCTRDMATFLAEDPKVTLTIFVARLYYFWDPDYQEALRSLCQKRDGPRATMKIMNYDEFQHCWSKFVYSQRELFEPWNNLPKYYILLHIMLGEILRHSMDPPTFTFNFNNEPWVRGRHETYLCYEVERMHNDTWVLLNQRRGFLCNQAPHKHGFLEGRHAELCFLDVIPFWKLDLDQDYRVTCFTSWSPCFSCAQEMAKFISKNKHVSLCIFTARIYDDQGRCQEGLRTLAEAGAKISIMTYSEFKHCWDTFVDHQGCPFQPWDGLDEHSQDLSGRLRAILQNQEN
T2 sequence (P31941 whole entry): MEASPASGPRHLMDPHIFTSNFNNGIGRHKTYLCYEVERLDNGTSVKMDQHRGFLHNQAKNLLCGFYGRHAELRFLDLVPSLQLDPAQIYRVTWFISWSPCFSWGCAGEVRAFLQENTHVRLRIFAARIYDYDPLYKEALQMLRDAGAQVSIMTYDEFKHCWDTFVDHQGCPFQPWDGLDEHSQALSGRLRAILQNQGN
Chain of Cytochrome P450 2D6 (P10635 whole entry, the tested form may be a part): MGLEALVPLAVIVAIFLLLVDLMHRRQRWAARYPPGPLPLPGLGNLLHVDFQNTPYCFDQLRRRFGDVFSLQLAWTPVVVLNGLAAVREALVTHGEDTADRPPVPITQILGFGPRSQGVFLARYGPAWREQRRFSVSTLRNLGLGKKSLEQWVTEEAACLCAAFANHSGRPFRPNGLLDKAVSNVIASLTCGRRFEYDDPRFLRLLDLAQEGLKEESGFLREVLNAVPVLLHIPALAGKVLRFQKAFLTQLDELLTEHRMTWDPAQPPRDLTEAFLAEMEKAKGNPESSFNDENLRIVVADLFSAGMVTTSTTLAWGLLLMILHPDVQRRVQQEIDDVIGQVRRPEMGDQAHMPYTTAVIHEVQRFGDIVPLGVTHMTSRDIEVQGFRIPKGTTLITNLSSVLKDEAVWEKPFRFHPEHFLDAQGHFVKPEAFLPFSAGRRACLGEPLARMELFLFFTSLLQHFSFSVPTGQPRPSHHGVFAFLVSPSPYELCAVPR
Chain of Nonstructural protein 1 (Q194T2 whole entry): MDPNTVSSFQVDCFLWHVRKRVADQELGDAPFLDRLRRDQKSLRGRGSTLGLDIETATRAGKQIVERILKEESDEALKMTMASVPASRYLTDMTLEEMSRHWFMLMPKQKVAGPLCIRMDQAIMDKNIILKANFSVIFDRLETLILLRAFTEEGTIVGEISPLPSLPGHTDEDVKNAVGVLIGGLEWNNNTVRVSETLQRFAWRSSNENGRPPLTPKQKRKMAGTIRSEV

Turning to `CCNS(=O)(=O)c1ccc(CCC(=O)NCc2ccccc2)cc1`, the IC50 (in general, the concentration that inhibits the measured activity by half) at Aminopeptidase N was 60.1 µM (active). For the molecule `Cc1cccc(NC(=O)CSc2nc3ccccc3o2)c1`, in [1], the concentration for a half-maximal effect (EC50) (as a rule, the concentration that produces a half-maximal response) is 4.44 µM (active). For the molecule `CCN1C(=O)/C(=C/NNC(=O)c2ccncc2)C(=O)NC1=S`, the IC50 is 85.1 µM (active) at Aminopeptidase N and 13.3 µM (active) on Nonstructural protein 1. In the case of `O=S(=O)(c1cccc(-c2nnc(S)n2Cc2ccccc2)c1)N1CCOCC1`, the IC50 is > 100 µM (inactive) in test [2] and 4.28 µM (active) in test [3].

As for `CCc1n(CC(O)COC2CCCCC2)c2ccccc2[n+]1C` (stereo unspecified), the IC50 in test [4] is 1.75 µM (active); in test [5], 1.42 µM (active). In the case of `COc1cccc(-c2cc(C(=O)Nc3cc(C)n(Cc4ccc(Cl)cc4)n3)no2)c1`, in test [6], the IC50 is > 80 µM (inactive). Regarding `[O-]/[N+](=C\c1ccncc1)c1ccccc1`, the IC50 in test [7] is > 80 µM (inactive). As for `O=C(NN1C(=O)c2ccccc2NC1c1ccccn1)c1ccccc1` (stereo unspecified), the 50% inhibitory concentration (IC50) at Aminopeptidase N is 81.1 µM (active).

Regarding `CC(=O)Nc1ccc2nc(-c3ccccn3)[nH]c2c1`, the IC50 at Aminopeptidase N was 94 µM (active). `FC(F)(F)c1nc(N2CCCC2)ncc1-c1nnnn1-c1ccc(Cl)cc1`: in test [1], the EC50 is 14.6 µM (active). Regarding `COc1ccc(C2NC(=O)c3sc(=S)n(-c4ccccc4)c3N2)cc1` (stereo unspecified), the EC50 was 21.6 µM (active) in test [8], 22.6 µM (active) in test [9] and 1.23 µM (active) in test [1]. Consider `O=[N+]([O-])c1ccccc1/C=N/n1c(S)nnc1-c1cccnc1`, for which the results for the IC50 in test [2] and in [3] were > 100 µM (inactive) and 3.08 µM (active), respectively. Regarding `COc1ccc(N2C(=O)CC(Sc3n[nH]c(-c4ccccc4)n3)C2=O)cc1` (stereo unspecified), the IC50 in test [2] is > 100 µM (inactive); in test [3] it was 14.9 µM (active).

Regarding `Cc1ccccc1NC(=O)N1CCCC(c2nc(-c3ccc(C(C)C)cc3)no2)C1` (stereo unspecified), the half-maximal effective concentration (EC50) in test [10] was 5.18 µM (active); in test [11], 0.157 µM (active); with H4 it was 23.1 µM (active); in [1], 8.11 µM (active). In the case of `Cc1c(Cl)c([N+](=O)[O-])nn1Cc1ccc(C(=O)N/N=C\c2cccc(Br)c2)o1`, the CC50 (usually the concentration giving 50% cytotoxicity) in [12] was 39.4 µM (active). Also, the IC50 in test [7] was > 80 µM (inactive). At Cytochrome P450 2D6, the concentration at half-maximal activity (AC50) (in general, the midpoint of the concentration-response curve, whichever way the signal moves) is 25.1 µM (inconclusive). For the molecule `O=[N+]([O-])c1cc(S(=O)(=O)Nc2cccc(C(F)(F)F)c2)ccc1-n1nnc2ccccc21`, the 50% effective concentration (EC50) in test [1] is 3.52 µM (active). Also, the IC50 on Fatty acid synthase [13] was 7.12 µM (active); on Fatty acid synthase [14] it was 4.72 µM (active). Take `O=C(Nc1nnc(S(=O)(=O)N2CCCCC2)s1)c1cccc(Br)c1`: the IC50 in test [7] is > 80 µM (inactive). As for `O=C(CSc1ccccn1)Nc1cccc2ccccc12`, the results for the half-inhibitory concentration (IC50) in [4] and in [5] were 8.82 µM (active) and 6 µM (active), respectively. Regarding `CCCCCC(O)CCc1nnc(S)n1-c1ccccc1` (stereo unspecified), the IC50 in [2] was > 100 µM (inactive); in test [3], 6.33 µM (active).

On to `O=C(NNC(=S)NCCc1ccccc1)c1ccc(Br)s1`, for which, on Aminopeptidase N, the IC50 was 9.19 µM (active).
